Data as given in patent US20150313913A1, “POSITIVE ALLOSTERIC MODULATORS OF THE GABA-A RECEPTOR IN THE TREATMENT OF AUTISM” (UNIVERSITY OF WASHINGTON THROUGH ITS CENTER FOR …, priority 2013, published 2015).
“Also recorded” adds a separate entry of the source.

Assays:
Scn1a+/− mice = experiment: Open field and elevated plus maze tests (sedation, anxiolysis); type: in vivo
Experimental: Open field test was performed as previously described^23. Briefly, each individual mouse was placed near the wall-side of 38×42 cm open-field arena, and the movement of the mouse was recorded by USB webcam (LIFECAM™ HD-6000, MICROSOFT™) and PC-based video capture software (WINAVI VIDEO CAPTURE™, ZJMEDIA DIGITAL TECHNOLOGY™) for 10 min. The recorded video file was further analyzed by off-line video tracking software (ETHOVISION™ XT 7.0, NOLDUS TECHNOLOGY™). Total distance traveled and time in center (15×15 cm imaginary square) were measured. The open field arena was cleaned with 70% ethanol and wiped with paper towels between each trial.
The elevated plus maze is a plus-shaped maze that is elevated 60 cm above the floor. It consists of two closed arms surrounded by 15-cm high transparent walls and two open arms (5×25 cm) with a small ledge along the side of two open arms to prevent falling from the maze during the test. Each mouse was placed in the center (5×5 cm) of the maze facing one of the closed arms. During the 10-min test period, the movement of the mouse was recorded by a USB webcam (LIFECAM™ HD-6000, MICROSOFT™) and PC-based video capture software (WINAVI VIDEO CAPTURE™, ZJ MEDIA DIGITAL TECHNOLOGY™). The recorded video file was further analyzed by off-line video tracking software (ETHOVISION™ XT 7.0). Times spent in closed arms, center, and open arms were measured. The maze was cleaned with 70% ethanol and wiped with paper towels between each trial.
(§1) Oral administration is specifically contemplated for the methods described herein, and is well known for both benzodiazepines and non-BDZ GABA-A enhancers as described herein.

wild-type mice = experiment: Three-chamber social preference test; type: in vivo; details: 0.0625 mg/kg, listed as CLZ
Experimental: The test was performed as described previously^34 with minor modifications. […] Each partition has a square opening (5×5 cm) in the bottom center. A cylindrical wire cage (10.5 cm diameter; GALAXY PENCIL CUP™ […] D[…]™) was used as an inanimate object or the cage housing a stranger mouse. A cylindrical bottle filled with water was placed on the top of the wire cup to prevent the test mouse from climbing to the top of the cup. The three-chamber unit and wire cups were cleaned with 70% ethanol and wiped with paper towels between each trail. […] The mouse was allowed to freely explore each chamber. […] The wire cage on the other side remained empty (E). […] Thus, the test mouse would now have the choice between a mouse that was already familiar (M1) and a new stranger mouse (M2). […] The movement of the mouse was recorded by a USB webcam (LIFECAM™ HD-6000, MICROSOFT™) and PC-based video capture software (WINAVI™ Video Capture, ZJ MEDIA DIGITAL TECHNOLOGY™). The recorded video file was further analyzed by off-line video tracking software (ETHOVISION™ XT 7.0).
as §1

BTBR mice [1] = experiment: Open-field reciprocal social interaction test; type: in vivo; details: for nose-to-nose interaction with stranger mouse / total (reciprocal) social interaction with stranger mouse: low dose (0.05 mg/kg), Pre/CLZ/Post at one-week intervals, 0.05 mg/kg
Experimental: (§2) A test mouse and an age- and gender-matched stimulus mouse with a mixed C57BL/6J×129 genetic background were introduced in an open field arena (50×50 cm). Mice were socially naïve with each other. The social interactions of mice were recorded by USB webcam (LifeCam HD-6000, Microsoft) and PC-based video capture software (WinAVI Video Capture, ZJ Media Digital Technology) for 10 min.

C57BL/6J mice [2] = experiment: Open-field reciprocal social interaction test; type: in vivo; details: same treatment
Experimental: as §2

BTBR mice [3] = experiment: Open field test; type: in vivo
Experimental: (§3) Open field test was performed as previously described (Han et al., 2012). 50×50 cm square open field arena with non-transparent white Plexiglas was used in this study. During the 10 min of trial, total distance moved, circling behavior (a complete 360-degree turn of nose angle with respect to the body center) and time in center (20×20 cm imaginary square) were measured by the video-tracking software (EthoVision XT 8.5, Noldus Technology).

C57BL/6J mice [4] = experiment: Open field test; type: in vivo
Experimental: as §3

BTBR mice [5] = experiment: Elevated plus maze test; type: in vivo; details: 0.05 mg/kg
Experimental: (§4) The test was performed as previously described (Han et al., 2012). The maze used in this study has two closed arms (5.1×30 cm) surrounded by 20-cm high non-transparent walls and two open arms (5.1×30 cm). During the 10 min of trial, times spent in closed, center, and open arms, and total distance traveled during the trial were measured by the video-tracking software (EthoVision XT 8.5, Noldus Technology).

C57BL/6J mice [6] = experiment: Elevated plus maze test; type: in vivo; details: low doses of clonazepam
Experimental: as §4

[7] = cited from earlier work
[8] = cited from earlier work; remark: listed apart in the source

O=C1CN=C(c2ccccc2Cl)c2cc([N+](=O)[O-])ccc2N1 [Clonazepam]
anxiolytic effect in elevated plus maze (Scn1a+/− mice; 0.0625 mg/kg): did not elicit anxiolytic effects | anxiolytic effect in open field test (Scn1a+/− mice; 0.0625 mg/kg): not observed | locomotor activity in open field test (Scn1a+/− mice; 0.0625 mg/kg): not changed | sedation (Scn1a+/− mice; both wild-type and Scn1a+/− mice, dose series): dose-dependent sedation | maximal intraperitoneal dose that did not cause significant sedation or anxiolytic effect (Scn1a+/− mice; open field and elevated plus maze, Scn1a+/− mice): 0.0625 mg/kg | social interaction, 3-chamber social preference test (wild-type mice): no effect; also recorded: absent; also recorded: not changed | nose-to-nose interaction with stranger mouse (BTBR mice [1]): significantly enhanced | total (reciprocal) social interaction with stranger mouse (BTBR mice [1]): significantly enhanced | nose-to-nose interaction with stranger mouse (BTBR mice [1]; listed as CLZ): reversibly increases | total (reciprocal) social interaction with stranger mouse (BTBR mice [1]; listed as CLZ): reversibly increases | stereotyped circling behavior in open field with stranger mouse (BTBR mice [1]; low dose (FIG. 8C)): reduces | social interaction and stereotyped behavior (C57BL/6J mice [2]): unaffected | social interaction and stereotyped behavior (C57BL/6J mice [2]; listed as CLZ): no significant effect | visits to center of open field (indicator of abnormally low anxiety) (BTBR mice [3]; 0.05 mg/kg): changed toward the values for C57BL/6J mice | locomotor activity under chronic low dose (BTBR mice [3]; 0.05 mg/kg daily for 14 days): did not cause any increase in locomotor activity; also recorded: did not have any effect | tolerance to sedative effect (locomotor activity Day 14 vs Day 1) (BTBR mice [3]; 1 mg/kg (high dose) for 14 days): significantly increased locomotor activity; also recorded: caused significant tolerance | locomotor activity on Day 14 compared to Day 1 (BTBR mice [3]; 1 mg/kg for 14 days): 222±42% | hyperactivity, total distance moved (BTBR mice [3]; single injection 0.05 mg/kg): significantly reduced | stereotyped circling behavior, number of 360° rotations (BTBR mice [3]; single injection 0.05 mg/kg): significantly reduced | anxiety-like behavior: avoidance of the center of an open field (C57BL/6J mice [4]; low doses of clonazepam): little effect | hyperactivity (total distance moved) and circling behavior (C57BL/6J mice [4]; low-dose clonazepam): unaffected | time in open arms (indicator of abnormally low anxiety) (BTBR mice [5]): changed toward the values for C57BL/6J mice | sedation (total distance moved during elevated plus maze) (BTBR mice [5]; BTBR and C57BL/6J mice (FIG. 43I)): did not cause sedation; also recorded: without sedation | anxiety-like behavior: avoidance of the open arms (C57BL/6J mice [6]): little effect | Dose in humans for anti-anxiety, anti-convulsive, or sedative effects: equivalent dose to 10 mg diazepam ([7]; Table 1, values marked *): 0.5 mg | dose of equivalent efficacy to 10 mg of diazepam [7]: 0.5 mg | half-life ([8]; in vivo): 30 to 40 h | half-life in vivo ([8]; mouse washout experiment): 12 h
